Here are results for 2 molecules from patent US20130171224A1, “TREATMENT OF BIOFILMS” (priority 2010, published 2013).

Holding throughout (assay type): cell-based
The test system of test [1] is Staphylococcus aureus ATCC6538 biofilm. Nature of the test: Combinational effects between ionic silver and polyphosphate (FIC) on NUNC biofilms. Conditions: 24 hour S. aureus biofilm. Further details: MIC in combination (A) / MIC in combination (B): unit not given beside the values. Here is the method:
(§1) The bacteria used in this study were Staphylococcus aureus ATCC6538, Candida albicans ATCC10231 and Pseudomonas aeruginosa ATCC9027. Pure cultures were maintained on nutrient agar at 37° C. The NUNC-TSP transferable solid phase screening system (NUNC, Roskilde, Denmark) was used to generate up to 96 reproducible biofilms in a microtitre plate. Briefly, a suspension of each bacteria was prepared in 0.9% saline solution and adjusted to a McFarland's standard no. 1.0. This bacterial suspension was then diluted 1:30 in sterile TSB and 150 μl aliquots aseptically transferred to a 96 well Calgary device. […] Biofilms were generated as described previously. […] Sigma-Aldrich, Germany) was prepared in water (40 mg/ml) and filter sterilised (0.22 μm). Concentrations of polyphosphate were prepared horizontally across the NUNC 96 well plate, whilst ionic silver was prepared vertically. […] This permitted a diverse array of drug concentration combinations to be tested in a single investigation.

The subject of test [2] is Pseudomonas aeruginosa ATCC9027 biofilm. Described as above. Further details: MIC in combination (A) / MIC in combination (B): unit not given beside the values. Particulars: for MIC alone mg/ml (B): agent B alone; for MIC in combination (B): agent B in combination with A; for MIC alone mg/ml (A): agent A alone; for MIC in combination (A): agent A in combination with B. Here is the method:
as §1

For test [3], the system named is Candida albicans ATCC10231 biofilm. The test is described as above. Further details: MIC in combination (A) / MIC in combination (B): unit not given beside the values. Particulars: 72 hour C. albicans biofilm. The method, then: as §1
Test [4] relates to Staphylococcus aureus ATCC6538 biofilm. Nature of the test: Challenge of NUNC-TSP biofilms to polyphosphate (MIC, MBC, MBEC). The method, then:
(§2) The bacteria used in this study were Staphylococcus aureus ATCC6538, Candida albicans ATCC10231 and Pseudomonas aeruginosa ATCC9027. Pure cultures were maintained on nutrient agar at 37° C. The NUNC-TSP transferable solid phase screening system (NUNC, Roskilde, Denmark) was used to generate up to 96 reproducible biofilms in a microtitre plate. Briefly, a suspension of each bacteria was prepared in 0.9% saline solution and adjusted to a McFarland's standard no. 1.0. This bacterial suspension was then diluted 1:30 in sterile TSB and 150 μl aliquots aseptically transferred to a 96 well Calgary device. Plates were incubated for 24 and 72 hours and then submerged in 150 μl 0.9% saline solution to remove planktonic bacteria from the biofilm surface. A stock solution of polyphosphate (80 mg/ml) was prepared in distilled water and filter sterilised (0.22 μm). This was subsequently diluted 1:2 in triplicate across the wells in TSB to a final concentration of 0.04 mg/ml. Each well also consisted of positive controls (TSB only in absence of antimicrobial agent) and negative controls. NUNC solid phase lids were subsequently transferred to this challenge plate and incubated overnight (37° C.). Wells were visually inspected for turbidity signifying bacterial growth. The minimum inhibitory concentration was defined as the lowest concentration of polyphosphate to prevent bacterial growth. Aliquots of wells (10 μl) showing no visual signs of turbidity were transferred to fresh TSB stocks and incubated for a further 8 hours (37° C.). This allowed the determination of the minimum bactericidal concentration (MBC). Subsequent to this, challenged NUNC peg lids were transferred to a 96 well recovery plate containing TSB media only. Plates were incubated overnight and visualised for bacterial growth. This allowed the determination of the minimum biofilm eradication concentration (MBEC). Any growth in the media corresponded to planktonic bacteria seeding the media from a viable biofilm. Absence of turbidity therefore signified bacterial eradication at this respective concentration of polyphosphate.

The subject of test [5] is Pseudomonas aeruginosa ATCC9027 biofilm. The description is as above. The method, then: as §2
The mark [6] stands for this setting: 24 hour monospecies S. aureus biofilm.
Setting [7] is: 24 hour monospecies P. aeruginosa biofilm.

Turning to `O=[N+]([O-])[O-].[Ag+]` [silver nitrate, reference compound], the “FIC (B)” value in test [1] was 1; in test [2] (24 hour P. aeruginosa biofilm) it was 0.0625; in test [2] (72 hour P. aeruginosa biofilm), 0.1; in test [3] it was 0.428. Also, the “MIC alone mg/ml (B)” value worked out at 0.015 mg/mL in test [1] (agent B alone), 10 mg/mL in test [2] (24 hour P. aeruginosa biofilm), 0.6 mg/mL in test [2] (72 hour P. aeruginosa biofilm) and 0.07 mg/mL in test [3] (agent B alone). The “MIC in combination (B)” value in test [1] (agent B in combination with A) stood at 0.015; in test [2] (24 hour P. aeruginosa biofilm), 0.625; in test [2] (72 hour P. aeruginosa biofilm) it was 0.07; in test [3] (agent B in combination with A), 0.03.
Turning to polyphosphate, the “FIC (A)” value in test [1] was 0.012; in test [2] (24 hour P. aeruginosa biofilm), 0.125; in test [2] (72 hour P. aeruginosa biofilm), 0.5; in test [3], 0.006. Also, the “MIC alone mg/ml (A)” value in test [1] (agent A alone) is 1.25 mg/mL; in test [2] (24 hour P. aeruginosa biofilm), 5 mg/mL; in test [2] (72 hour P. aeruginosa biofilm), 80 mg/mL; in test [3] (agent A alone) it was 5 mg/mL. In addition, the “MIC in combination (A)” value in test [1] (agent A in combination with B) is on record as 0.015; in test [2] (24 hour P. aeruginosa biofilm), 0.625; in test [2] (72 hour P. aeruginosa biofilm), 40; in test [3] (agent A in combination with B) it was 0.03. Besides, the results for the MBC in test [4] (setting [6]) and in test [5] (setting [7]) were 10000 µg/mL and greater than 80000 µg/mL, respectively. For the same molecule, the MBEC is 40 to 80 mg/mL in test [4] (setting [6]) and greater than 80 mg/mL in test [5] (setting [7]). Also, the MIC in test [4] (setting [6]) was 1250 µg/mL; in test [4] (72 hour S. aureus biofilm), 20000 µg/mL; in test [5] (setting [7]), 5000 µg/mL; in test [5] (72 hour P. aeruginosa biofilm), 80000 µg/mL.
